In patent US6403626B1, “Benzimidazole derivatives” (Synaptic Pharmaceutical Corporation, priority 1994, dated 2002):
Structures can show the parent of a compound that is named as a salt. Where two headings read alike, the source gives them in different places.

Assays:
[1] = target: T1, α1A Human Adrenergic Receptor (Homo sapiens, UniProt P25100); test: Equilibrium competition binding, [3H] prazosin, membranes of transfected LM(tk-) cells
T1 construct: expressed in transfected cells; host or cells: LM(tk-) cells
T1 sequence (P25100 1-572): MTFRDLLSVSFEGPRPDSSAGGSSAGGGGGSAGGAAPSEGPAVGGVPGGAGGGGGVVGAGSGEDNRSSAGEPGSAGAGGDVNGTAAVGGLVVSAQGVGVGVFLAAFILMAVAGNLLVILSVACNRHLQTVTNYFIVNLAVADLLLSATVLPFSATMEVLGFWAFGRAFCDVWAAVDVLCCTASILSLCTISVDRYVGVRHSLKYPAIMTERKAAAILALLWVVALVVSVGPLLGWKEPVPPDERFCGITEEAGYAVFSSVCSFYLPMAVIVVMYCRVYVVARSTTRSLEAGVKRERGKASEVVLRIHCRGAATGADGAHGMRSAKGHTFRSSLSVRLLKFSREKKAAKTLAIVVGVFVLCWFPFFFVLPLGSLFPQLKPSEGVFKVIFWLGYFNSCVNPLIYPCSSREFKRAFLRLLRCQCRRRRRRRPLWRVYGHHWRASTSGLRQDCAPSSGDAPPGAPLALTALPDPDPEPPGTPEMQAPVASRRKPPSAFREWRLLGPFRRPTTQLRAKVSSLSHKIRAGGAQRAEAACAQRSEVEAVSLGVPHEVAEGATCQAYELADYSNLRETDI
Experimental: (§1) Binding and functional assays were performed using stably transfected human alpha adrenergic receptors. Equilibrium competition binding assays were performed with membrane preparations from cultured LM(tk-) cells stably transfected with the cloned human adrenoceptor subtypes except for α2b, which was expressed in Y-1 cells, using [^3H] prazosin for α1 receptors and [^3H] rauwolscine for α2 receptors.
(§2) Transfected cells from culture flasks were scraped into 5 ml of 5 mM Tris-HCl, 5 mM EDTA, pH 7.5, and lysed by sonication. The cell lysates were centrifuged at 1000 rpm for 5 min at 4° C., and the supernatant was centrifuged at 30,000×g for 20 min at 4° C. The pellet was suspended in 50 mM Tris-HCl, 1 mM MgCl2, and 0.1% ascorbic acid at pH 7.5. Binding of α2 antagonist [^3H] rauwolscine ([…]) to membrane preparations of LM(tk-) cells was done in a final volume of 0.25 ml and incubated at 37° C. for 20 min. Nonspecific binding was determined in the presence of 10 μM phentolamine. The reaction was stopped by filtration through GF/B filters using a cell harvester.
(§3) Stable cell lines were selected as described above.

[2] = target: T2, α1B Human Adrenergic Receptor (Homo sapiens, UniProt P35368); test: as above; conditions: cloned human receptor, [3H] prazosin
T2 construct: The entire coding region of α1B(1563 bp); expressed in transfected cells; host or cells: LM(tk-) cells
T2 sequence (P35368 1-520): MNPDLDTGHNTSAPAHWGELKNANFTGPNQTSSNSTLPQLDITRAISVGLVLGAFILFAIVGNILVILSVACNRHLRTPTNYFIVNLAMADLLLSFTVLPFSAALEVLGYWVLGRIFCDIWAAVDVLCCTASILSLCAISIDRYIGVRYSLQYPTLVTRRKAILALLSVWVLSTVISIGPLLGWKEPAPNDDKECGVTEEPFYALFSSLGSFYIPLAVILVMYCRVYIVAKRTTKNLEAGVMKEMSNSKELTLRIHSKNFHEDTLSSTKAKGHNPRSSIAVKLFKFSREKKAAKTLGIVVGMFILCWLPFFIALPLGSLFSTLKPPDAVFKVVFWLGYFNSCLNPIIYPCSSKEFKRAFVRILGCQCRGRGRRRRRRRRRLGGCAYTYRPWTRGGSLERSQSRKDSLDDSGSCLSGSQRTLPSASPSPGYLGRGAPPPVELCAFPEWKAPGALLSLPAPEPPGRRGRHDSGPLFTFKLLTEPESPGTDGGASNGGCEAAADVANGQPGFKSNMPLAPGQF
Experimental: as §1, §2
The construct involved ligating the full-length containing EcoRI brainstem cDNA fragment from ZapII into the expression vector. The stable cell lines were selected as described above.

[3] = target: T3, α2C Human Adrenergic Receptor (Homo sapiens, UniProt P18825); assay type: cell-based; design: The entire coding region of α2C (1383 bp), including 2 bp of 5′ UT and 400 bp of 3′ UT; expressed in transfected cells; host or cells: LM(tk-) cells; conditions: for I.A Alpha-2 C: functional cAMP assay
T3 sequence (P18825 1-462): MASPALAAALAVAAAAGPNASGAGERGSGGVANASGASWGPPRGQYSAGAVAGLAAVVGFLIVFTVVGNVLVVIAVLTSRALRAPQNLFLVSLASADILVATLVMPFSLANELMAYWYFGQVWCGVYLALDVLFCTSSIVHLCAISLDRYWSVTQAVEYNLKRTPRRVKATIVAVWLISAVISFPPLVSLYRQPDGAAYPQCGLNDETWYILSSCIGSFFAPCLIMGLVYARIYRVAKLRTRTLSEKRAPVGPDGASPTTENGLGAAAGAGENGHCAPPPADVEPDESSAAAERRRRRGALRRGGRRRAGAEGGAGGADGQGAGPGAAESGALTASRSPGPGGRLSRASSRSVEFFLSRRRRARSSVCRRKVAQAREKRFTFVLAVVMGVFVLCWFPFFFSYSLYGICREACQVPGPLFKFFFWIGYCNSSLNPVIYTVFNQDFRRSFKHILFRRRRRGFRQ
Experimental: as §1
The insert housing this coding region was an @ 1.8 kb Ncol/EcoRI human spleen genomic fragment which was end-blunted by either T4 polymerase or Klenow fragment of DNA polymerase. Stable cell lines were selected as described above.
(§4) The agonist activity (expressed as pEC50) was measured as a function of the ability to inhibit the forskolin-stimulated synthesis of cyclic adenosine monophosphate (cAMP). The stably transfected cells were incubated in Ham's F10 with 5 mM theophylline, 10 mM HEPES, 10 μM pargyline, and/or appropriate concentrations of forskolin for 20 min at 37° C. in 5% CO2. The tested compounds were then added to a final concentration of 0.001 nM to 1 μM and incubated for an additional 15 min at 37° C. in 5% CO2. The medium was aspirated and the reaction was stopped by the addition of 100 mM HCl . […] The plates are stored at 4° C. for 15 min and assayed to determine the linear concentration of cAMP. The appropriate dilution is interpolated from the standard curve of cold cAMP. The assessment of cAMP formation is determined by radioimmunoassay (cAMP radioimmunoassay kit; Advanced Magnetics, Cambridge, Mass.). Radioactivity was quantified using a Packard COBRA Auto Gamma counter, equipped with data reduction software.

[4] = target: T4, α2B Human Adrenergic Receptor (Homo sapiens, UniProt P18089); assay type: cell-based
T4 construct: expressed in transfected cells; host or cells: Y-1 cells
T4 sequence (P18089 1-450): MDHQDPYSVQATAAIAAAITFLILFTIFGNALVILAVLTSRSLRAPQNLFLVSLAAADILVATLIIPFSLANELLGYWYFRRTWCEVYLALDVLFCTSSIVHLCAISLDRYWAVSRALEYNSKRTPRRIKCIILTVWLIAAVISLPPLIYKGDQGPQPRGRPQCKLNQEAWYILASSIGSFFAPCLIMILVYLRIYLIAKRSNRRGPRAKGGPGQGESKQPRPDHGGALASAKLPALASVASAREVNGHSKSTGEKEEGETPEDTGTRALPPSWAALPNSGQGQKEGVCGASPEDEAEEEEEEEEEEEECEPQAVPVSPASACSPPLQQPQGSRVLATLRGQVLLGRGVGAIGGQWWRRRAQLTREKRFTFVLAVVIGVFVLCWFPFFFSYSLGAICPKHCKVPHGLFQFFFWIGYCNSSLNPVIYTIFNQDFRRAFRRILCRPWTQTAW
Experimental: as §1, §3, §4

[5] = target: T3, α2C Human Adrenergic Receptor; test: Equilibrium competition binding, [3H] rauwolscine, membranes of transfected LM(tk-) cells
[6] = target: T4, α2B Human Adrenergic Receptor; test: Equilibrium competition binding, [3H] rauwolscine, membranes of transfected Y-1 cells
Experimental: as §1, §3, §2

[7] = cloned human receptor, [3H] rauwolscine, read-out: pKi Alpha-2 B (converted)
[8] = inhibition of forskolin-stimulated cAMP, NA: Not Active, read-out: pEC50 Alpha-2 C (converted)

Structure (SMILES) | melting point | I.A Alpha-2 C [3] | Ki [5] | Ki [6] | other results
c1nc2ccc(NC3=NCCN3)cc2[nH]1 (as salt: fumarate) [Example 1, 5-(2-Imidazolin-2-ylamino)Benzimidazole] | 196 to 198 °C |  |  |  | 
Brc1c(NC2=NCCN2)ccc2nc[nH]c12 (as salt: fumarate) [Example 2, 4-Bromo-5-(2-imidazolin-2-ylamino)Benzimidazole] | 199 to 202 °C |  |  |  | 
Clc1c(NC2=NCCN2)ccc2nc[nH]c12 (as salt: fumarate) [Example 3, 4-Chloro-5-(2-imidazolin-2-ylamino)Benzimidazole] | 207 to 208 °C |  |  |  | 
Ic1c(NC2=NCCN2)ccc2nc[nH]c12 (as salt: fumarate) [Example 5, 4-Iodo-5-(2-imidazolin-2-ylamino)Benzimidazole] | 256 °C |  |  |  | 
CCc1c(NC2=NCCN2)ccc2nc[nH]c12 (as salt: fumarate) [Example 6, 4-Ethyl-5-(2-imidazolin-2-ylamino)Benzimidazole] | 238 to 239 °C |  |  |  | 
CCCCc1c(NC2=NCCN2)ccc2nc[nH]c12 (as salt: fumarate) [Example 8, 4-n-Butyl-5-(2-imidazolin-2-ylamino)Benzimidazole] | 96 °C |  |  |  | 
Clc1cccc(Cl)c1N=C1NCCN1 [Clonidine, reference compound] |  |  |  |  | Ki ([1]; cloned human receptor, [3H] prazosin, read-out: pKi Alpha-1 A (converted)): 513 nM; pKi Alpha-1 B [2]: 5.62
CCc1c(NC2=NCCN2)ccc2nc[nH]c12 [Example 6, 4-Ethyl-5-(2-imidazolin-2-ylamino)Benzimidazole] |  | 1.00 | 47.9 nM | 22.4 nM | EC50 [3]: 3.98 nM; EC50 [4]: 22.4 nM; I.A Alpha-2 B [4]: 1.00
CCCn1cnc2cc(NC3=NCCN3)ccc21 [Example 13, 1-Propyl-5-(2-imidazolin-2-ylamino)Benzimidazole] |  |  | 398 nM | 363 nM | Ki [1]: 10500 nM; Ki ([2]; read-out: pKi Alpha-1 B (converted)): 93300 nM
CC(C)n1cnc2c(I)c(NC3=NCCN3)ccc21 [Example 19, 1-lsopropyl-4-Iodo-5-(2-imidazolin-2-ylamino)Benzimidazole] |  |  | 129 nM |  | Ki [6, 7]: 214 nM
Brc1c(NC2=NCCN2)ccc2c1ncn2CC1CCCCC1 [Example 30, 1-Cyclohexylmethyl-4-bromo-5-(2-imidazolin-2-ylamino)Benzimidazole] |  |  | 309 nM |  | Ki [6, 7]: 166 nM
COc1cccc(Cn2cnc3c(Br)c(NC4=NCCN4)ccc32)c1 [Example 37, 1-(3-Methoxybenzyl)-4-bromo-5-(2-imidazolin-2-ylamino)Benzimidazole] |  | 0.50 | 117 nM |  | EC50 [3, 8]: 52.5 nM; Ki [6, 7]: 81.3 nM
Brc1c(NC2=NCCN2)ccc2nc(C3CC3)[nH]c12 [Example 47, 2-Cyclopropyl-4-bromo-5-(2-imidazolin-2-ylamino)Benzimidazole] |  |  | 224 nM | 44.7 nM | EC50 [3]: 45.7 nM; EC50 [4]: 115 nM
Cc1cc2nc[nH]c2cc1NC1=NCCN1 [Example 49, 6-Methyl-5-(2-imidazolin-2-ylamino)Benzimidazole] |  | 1.00 |  | 36.3 nM | 
Brc1cc(NC2=NCCN2)cc2[nH]cnc12 [Example 51, 7-Bromo-5-(2-imidazolin-2-ylamino)Benzimidazole] |  | 1.00 | 123 nM | 27.5 nM | EC50 [3]: 4.27 nM; EC50 [4]: 89.1 nM; I.A Alpha-2 B [4]: 0.60
Cc1cc(NC2=NCCN2)cc2[nH]cnc12 [Example 52, 7-Methyl-5-(2-imidazolin-2-ylamino)Benzimidazole] |  | 1.00 |  | 77.6 nM | EC50 [4]: 72.4 nM; I.A Alpha-2 B [4]: 0.80
CCc1cc(NC2=NCCN2)cc2[nH]cnc12 [Example 55, 7-Ethyl-5-(2-imidazolin-2-ylamino)Benzimidazole] |  | 0.80 | 427 nM | 209 nM | EC50 [3, 8]: 162 nM
c1ccc(-c2cc(NC3=NCCN3)cc3[nH]cnc23)cc1 [Example 57, 7-Phenyl-5-(2-imidazolin-2-ylamino)Benzimidazole] |  |  | 135 nM |  | EC50 [3, 8]: 15.1 nM; I.A Alpha-2 B ([4]; functional cAMP assay): 1.00; EC50 ([4]; inhibition of forskolin-stimulated cAMP, NA: Not Active, read-out: pEC50 Alpha-2 B (converted)): 8510 nM; Ki [6, 7]: 60.3 nM
